The target of one assay is T1, human GIP receptor (Homo sapiens, UniProt P48546).
T1 construct: expressed in transfected cells; crude membranes
T1 sequence (P48546 22-466): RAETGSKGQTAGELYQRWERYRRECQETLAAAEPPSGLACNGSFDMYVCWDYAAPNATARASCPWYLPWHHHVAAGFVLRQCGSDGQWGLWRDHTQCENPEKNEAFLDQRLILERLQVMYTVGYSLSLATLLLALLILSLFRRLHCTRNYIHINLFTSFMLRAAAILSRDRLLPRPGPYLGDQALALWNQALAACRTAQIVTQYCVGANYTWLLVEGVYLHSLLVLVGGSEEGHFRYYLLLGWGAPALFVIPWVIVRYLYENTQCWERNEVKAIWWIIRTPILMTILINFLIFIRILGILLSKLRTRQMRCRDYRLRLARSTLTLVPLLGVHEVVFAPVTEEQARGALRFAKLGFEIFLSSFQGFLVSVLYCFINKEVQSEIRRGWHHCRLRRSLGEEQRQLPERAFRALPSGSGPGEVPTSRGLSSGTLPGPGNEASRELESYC
As to the kind of experiment: [125I]-GIP binding (SPA), human GIP receptor. The following applies: read-out: hGIPR Ki, nM (SEM, n).

A further assay addresses T2, human Gcg receptor (Homo sapiens, UniProt P47871).
T2 construct: expressed in transfected cells; crude membranes
As to the kind of experiment: [125I]-Glucagon binding (SPA), human Gcg receptor. The following applies: read-out: hGLcgR Ki, nM (SEM, n). Summed up:
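Crude membranes from cells expressing the receptor, prepared by hypotonic lysis in 50 mM Tris HCl pH 7.5 with protease inhibitors, homogenization and differential centrifugation, were used in a WGA-bead SPA. Binding buffer: 25 mM HEPES pH 7.4, 2.5 mM CaCl2, 1 mM MgCl2, bacitracin, Tween-20.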

Assay [1] deals with T3, gastric inhibitory peptide receptor (GIPR) (Homo sapiens, UniProt P48546).
T3 sequence (P48546 22-466): T1 sequence (P48546 22-466)
As to the kind of experiment: cAMP pharmacological functional assay in presence of casein, hGIPR. The following applies: HEK293 cells expressing hGIPR, 0.1% Casein, geometric mean; read-out: hGIPR cAMP Rel EC50 nM (SEM, n). Format: cell-based.

Another assay deals with human GLP-1R (Homo sapiens, UniProt P43220). As to the kind of experiment: [125I]-GLP-1 binding (SPA), human GLP-1 receptor. Also noted: expressed in transfected cells; crude membranes. The following applies: read-out: hGLP1R Ki, (nM) (SEM, n). Put shortly: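 Assay buffer: HEPES 25 mM, pH 7.4, CaCl2 2.5 mM, MgCl2 1 mM, with EDTA-free protease inhibitors. Receptor came from crude cell membranes prepared by homogenization and centrifugation at 4° C. IC50s came from four-parameter fits (maximum, minimum, IC50, Hill slope) and were expressed as Ki geometric means with SEM.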

For assay [2], the target named is human GLP-1 receptor (GLP-1R) (Homo sapiens, UniProt P43220). As to the kind of experiment: cAMP pharmacological functional assay in presence of casein, hGLP-1R. Type of assay: cell-based. The following applies: HEK293 cells expressing hGLP-1R, 0.1% Casein, geometric mean; read-out: hGLP1R cAMP Rel EC50 nM (SEM, n).

The source of these data is patent publication US12252524B2, “GIP/GLP1 co-agonist compounds” (Eli Lilly and Company, priority 2018, dated 2025).

Numbered stars: 1 amine (or outer) side, 2 acyl side, 3 side chain; on linkers, the order of the positions; unused ones are H or OH. Square brackets hold non-standard residues; d marks the D form. Side chains are listed from the residue outwards. Peptide text beside a SMILES is read from it. * marks the point of attachment. C20 diacid = O=C(O)CCCCCCCCCCCCCCCCCCC(=O)*; αMePhe(2-F) = C[C@](N)(Cc1ccccc1F)C(=O)O; γGlu = O=C(O)[C@H](CCC(=O)[*:2])N[*:1]; αMeF = C[C@](N)(Cc1ccccc1)C(=O)O; αMeL = CC(C)C[C@](C)(N)C(=O)O; AEEA = NCCOCCOCC(=O)O; Aib = CC(C)(N)C(=O)O

T2 sequence (P47871 26-477): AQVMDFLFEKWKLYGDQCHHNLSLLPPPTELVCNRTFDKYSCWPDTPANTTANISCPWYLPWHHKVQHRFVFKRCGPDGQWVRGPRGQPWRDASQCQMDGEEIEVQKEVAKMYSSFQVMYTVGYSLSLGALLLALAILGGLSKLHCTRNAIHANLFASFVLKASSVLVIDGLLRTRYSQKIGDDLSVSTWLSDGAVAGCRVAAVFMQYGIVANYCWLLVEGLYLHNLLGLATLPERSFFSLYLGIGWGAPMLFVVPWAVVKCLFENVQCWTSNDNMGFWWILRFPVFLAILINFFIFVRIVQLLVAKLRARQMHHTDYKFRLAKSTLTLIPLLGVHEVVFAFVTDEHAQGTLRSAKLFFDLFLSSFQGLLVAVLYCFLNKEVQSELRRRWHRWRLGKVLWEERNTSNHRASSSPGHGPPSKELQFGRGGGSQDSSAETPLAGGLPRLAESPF
Chain of human GLP-1R (P43220 24-463): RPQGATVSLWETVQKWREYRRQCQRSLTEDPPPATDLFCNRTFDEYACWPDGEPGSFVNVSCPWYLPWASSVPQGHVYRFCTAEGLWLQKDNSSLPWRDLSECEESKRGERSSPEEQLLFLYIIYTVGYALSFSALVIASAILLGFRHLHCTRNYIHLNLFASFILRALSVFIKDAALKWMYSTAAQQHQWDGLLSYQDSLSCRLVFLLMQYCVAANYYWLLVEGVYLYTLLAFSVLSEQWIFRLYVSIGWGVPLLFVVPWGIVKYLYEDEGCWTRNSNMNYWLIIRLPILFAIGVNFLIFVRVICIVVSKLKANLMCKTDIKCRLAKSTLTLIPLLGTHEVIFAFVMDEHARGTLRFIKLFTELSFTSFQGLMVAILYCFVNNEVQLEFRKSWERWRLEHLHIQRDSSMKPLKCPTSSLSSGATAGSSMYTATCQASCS
Chain of human GLP-1 receptor (GLP-1R) (P43220 24-463): as above

On to `CC[C@H](C)[C@H](NC(=O)[C@H](Cc1ccccc1)NC(=O)[C@H](C)NC(=O)[C@H](CCC(N)=O)NC(=O)[C@H](CCC(N)=O)NC(=O)[C@H](C)NC(=O)[C@H](CCCCNC(=O)COCCOCCNC(=O)COCCOCCNC(=O)CC[C@H](NC(=O)CCCCCCCCCCCCCCCCCCC(=O)O)C(=O)O)NC(=O)[C@H](CCC(=O)O)NC(=O)[C@H](CC(=O)O)NC(=O)[C@H](CC(C)C)NC(=O)[C@](C)(CC(C)C)NC(=O)[C@@H](NC(=O)[C@H](CO)NC(=O)[C@H](Cc1ccc(O)cc1)NC(=O)[C@H](CC(=O)O)NC(=O)[C@H](CO)NC(=O)[C@@H](NC(=O)[C@](C)(Cc1ccccc1)NC(=O)[C@@H](NC(=O)CNC(=O)[C@H](CCC(=O)O)NC(=O)C(C)(C)NC(=O)[C@@H](N)Cc1ccc(O)cc1)[C@@H](C)O)[C@@H](C)O)[C@@H](C)CC)C(=O)N[C@@H](CCC(=O)O)C(=O)N[C@@H](Cc1ccc(O)cc1)C(=O)N[C@@H](CC(C)C)C(=O)N[C@H](C(=O)N[C@@H](CCC(=O)O)C(=O)NC(C)(C)C(=O)NCC(=O)N1CCC[C@H]1C(=O)N[C@@H](CO)C(=O)N[C@@H](CO)C(=O)NCC(=O)N[C@@H](C)C(=O)N1CCC[C@H]1C(=O)N1CCC[C@H]1C(=O)N1CCC[C@H]1C(=O)N[C@@H](CO)C(N)=O)[C@@H](C)CC` [Example 122] (H-Y[Aib]EGT[αMeF]TSDYSI[αMeL]LDEK([AEEA-AEEA-γGlu-C20 diacid])AQQAFIEYLIE[Aib]GPSSGAPPPS-NH2), for which the results for the Ki at human GIP receptor, at human Gcg receptor and on human GLP-1R were 0.19 nM, 43.3 nM and 3.36 nM, respectively. The values for the EC50 in assay [1] and in assay [2] were 0.0923 nM and 0.076 nM, respectively.

For `CC[C@H](C)[C@H](NC(=O)[C@H](CC(C)C)NC(=O)[C@H](Cc1ccc(O)cc1)NC(=O)[C@H](CCC(=O)O)NC(=O)[C@@H](NC(=O)[C@H](Cc1ccccc1)NC(=O)[C@H](C)NC(=O)C(C)(C)NC(=O)[C@H](CCC(N)=O)NC(=O)[C@H](C)NC(=O)[C@H](CCCCNC(=O)CCCCCCCNC(=O)COCCOCCNC(=O)CC[C@H](NC(=O)CCCCCCCCCCCCCCCCCCC(=O)O)C(=O)O)NC(=O)[C@H](CCCCN)NC(=O)[C@H](CC(=O)O)NC(=O)[C@H](CC(C)C)NC(=O)[C@H](CC(C)C)NC(=O)[C@@H](NC(=O)[C@H](CO)NC(=O)[C@H](Cc1ccc(O)cc1)NC(=O)[C@H](CC(=O)O)NC(=O)[C@H](CO)NC(=O)[C@@H](NC(=O)[C@H](Cc1ccccc1)NC(=O)[C@@H](NC(=O)CNC(=O)[C@H](CCC(=O)O)NC(=O)C(C)(C)NC(=O)[C@@H](N)Cc1ccc(O)cc1)[C@@H](C)O)[C@@H](C)O)[C@@H](C)CC)[C@@H](C)CC)C(=O)N[C@@H](CCC(=O)O)C(=O)NCC(=O)NCC(=O)N1CCC[C@H]1C(=O)N[C@@H](CO)C(=O)N[C@@H](CO)C(=O)NCC(=O)N[C@@H](C)C(=O)N1CCC[C@H]1C(=O)N1CCC[C@H]1C(=O)N1CCC[C@H]1C(=O)N[C@@H](CO)C(N)=O` [Example 109], the figures for the Ki on human GIP receptor, on human Gcg receptor and at human GLP-1R were 0.0279 nM, 43.1 nM and 1.34 nM, respectively. Moreover, the values for the 50% effective concentration (EC50) in assay [1] and in assay [2] were 0.109 nM and 0.35 nM, respectively.

On to `CC[C@H](C)[C@H](NC(=O)[C@H](CC(C)C)NC(=O)[C@H](Cc1ccc(O)cc1)NC(=O)[C@H](CCC(=O)O)NC(=O)[C@@H](NC(=O)[C@H](Cc1ccccc1)NC(=O)[C@H](CCC(=O)O)NC(=O)C(C)(C)NC(=O)[C@H](CCC(N)=O)NC(=O)[C@H](C)NC(=O)[C@H](CCCCNC(=O)COCCOCCNC(=O)COCCOCCNC(=O)CC[C@H](NC(=O)CCCCCCCCCCCCCCCCCCC(=O)O)C(=O)O)NC(=O)[C@H](CCC(=O)O)NC(=O)[C@H](CC(=O)O)NC(=O)[C@H](CC(C)C)NC(=O)[C@](C)(CC(C)C)NC(=O)[C@@H](NC(=O)[C@H](CO)NC(=O)[C@H](Cc1ccc(O)cc1)NC(=O)[C@H](CC(=O)O)NC(=O)[C@H](CO)NC(=O)[C@@H](NC(=O)[C@](C)(Cc1ccccc1F)NC(=O)[C@@H](NC(=O)CNC(=O)[C@H](CCC(=O)O)NC(=O)C(C)(C)NC(=O)[C@@H](N)Cc1ccc(O)cc1)[C@@H](C)O)[C@@H](C)O)[C@@H](C)CC)[C@@H](C)CC)C(=O)N[C@@H](CCC(=O)O)C(=O)NCC(=O)NCC(N)=O` [Example 103] (H-Y[Aib]EGT[αMePhe(2-F)]TSDYSI[αMeL]LDEK([AEEA-AEEA-γGlu-C20 diacid])AQ[Aib]EFIEYLIEGG-NH2; N-terminus assumed), for which the values for the inhibition constant (Ki) on human GIP receptor, at human Gcg receptor and on human GLP-1R were 0.0645 nM, 40.3 nM and 6.68 nM, respectively. Moreover, the values for the half-maximal effective concentration (EC50) in assay [1] and in assay [2] were 0.0693 nM and 0.101 nM, respectively.

As for `CC[C@H](C)[C@H](NC(=O)[C@H](CC(C)C)NC(=O)[C@H](Cc1ccc(O)cc1)NC(=O)[C@H](CCC(=O)O)NC(=O)[C@@H](NC(=O)[C@H](Cc1ccccc1)NC(=O)[C@H](C)NC(=O)C(C)(C)NC(=O)[C@H](CCC(N)=O)NC(=O)[C@H](C)NC(=O)[C@H](CCCCNC(=O)COCCOCCNC(=O)COCCOCCNC(=O)CC[C@H](NC(=O)CCCCCCCCCCCCCCCCCCC(=O)O)C(=O)O)NC(=O)[C@H](CCCCN)NC(=O)[C@H](CC(=O)O)NC(=O)[C@H](CC(C)C)NC(=O)[C@](C)(CC(C)C)NC(=O)[C@@H](NC(=O)[C@H](CO)NC(=O)[C@H](C)NC(=O)[C@H](CC(=O)O)NC(=O)[C@H](CO)NC(=O)[C@@H](NC(=O)[C@](C)(Cc1ccccc1)NC(=O)[C@@H](NC(=O)CNC(=O)[C@H](CCC(=O)O)NC(=O)C(C)(C)NC(=O)[C@@H](N)Cc1ccc(O)cc1)[C@@H](C)O)[C@@H](C)O)[C@@H](C)CC)[C@@H](C)CC)C(=O)N[C@@H](CCC(=O)O)C(=O)NCC(=O)NCC(=O)N1CCC[C@H]1C(=O)N[C@@H](CO)C(=O)N[C@@H](CO)C(=O)NCC(=O)N[C@@H](C)C(=O)N1CCC[C@H]1C(=O)N1CCC[C@H]1C(=O)N1CCC[C@H]1C(=O)N[C@@H](CO)C(N)=O` [Example 145] (H-Y[Aib]EGT[αMeF]TSDASI[αMeL]LDKK([AEEA-AEEA-γGlu-C20 diacid])AQ[Aib]AFIEYLIEGGPSSGAPPPS-NH2), the inhibition constant (Ki) (commonly the equilibrium dissociation constant of an inhibitor or competing ligand from its target) at human GIP receptor was 0.0652 nM; on human Gcg receptor, 158 nM; on human GLP-1R, 2.22 nM. The EC50 (usually the midpoint of the concentration-response curve) in assay [1] came out at 0.0514 nM; in assay [2], 0.0427 nM.

Take `CC[C@H](C)[C@H](NC(=O)[C@H](Cc1ccccc1)NC(=O)[C@H](C)NC(=O)C(C)(C)NC(=O)[C@H](CCC(N)=O)NC(=O)[C@H](C)NC(=O)[C@H](CCCCNC(=O)COCCOCCNC(=O)COCCOCCNC(=O)CC[C@H](NC(=O)CCCCCCCCCCCCCCCCCCC(=O)O)C(=O)O)NC(=O)[C@H](CCCCN)NC(=O)[C@H](CC(=O)O)NC(=O)[C@H](CC(C)C)NC(=O)[C@H](CC(C)C)NC(=O)[C@@H](NC(=O)[C@H](CO)NC(=O)[C@H](Cc1ccc(O)cc1)NC(=O)[C@H](CC(=O)O)NC(=O)[C@H](CO)NC(=O)[C@@H](NC(=O)[C@H](Cc1ccccc1)NC(=O)[C@@H](NC(=O)CNC(=O)[C@H](CCC(=O)O)NC(=O)C(C)(C)NC(=O)[C@@H](N)Cc1ccc(O)cc1)[C@@H](C)O)[C@@H](C)O)[C@@H](C)CC)C(=O)N[C@@H](CCC(=O)O)C(=O)N[C@@H](Cc1ccc(O)cc1)C(=O)N[C@@H](CC(C)C)C(=O)N[C@@H](CC(C)C)C(=O)N[C@@H](CCC(=O)O)C(=O)NCC(=O)NCC(=O)N1CCC[C@H]1C(=O)N[C@@H](CO)C(=O)N[C@@H](CO)C(=O)NCC(=O)N[C@@H](C)C(=O)N1CCC[C@H]1C(=O)N1CCC[C@H]1C(=O)N1CCC[C@H]1C(=O)N[C@@H](CO)C(N)=O` [Example 6] (H-Y[Aib]EGTFTSDYSILLDKK([AEEA-AEEA-γGlu-C20 diacid])AQ[Aib]AFIEYLLEGGPSSGAPPPS-NH2): the results for the Ki on human GIP receptor, on human Gcg receptor and on human GLP-1R were 0.0835 nM, 55.8 nM and 6.71 nM, respectively. The EC50 in assay [1] is 0.0899 nM; in assay [2], 0.374 nM.
